# From EP0595557A1, “New substituted azetidinones as anti-inflammatory and antidegenerative agents” (MERCK & CO. INC., priority 1992, dated 1994)
# Biological target: T1, Human Polymorphonuclear Leukocyte Elastase (Homo sapiens, UniProt P08246)
# T1 construct: Crude extract of human polymorphonuclear leukocytes (PMN) containing elastase activity; from tissue; host or cells: human polymorphonuclear leukocytes (crude extract)
# T1 sequence (P08246 30-267): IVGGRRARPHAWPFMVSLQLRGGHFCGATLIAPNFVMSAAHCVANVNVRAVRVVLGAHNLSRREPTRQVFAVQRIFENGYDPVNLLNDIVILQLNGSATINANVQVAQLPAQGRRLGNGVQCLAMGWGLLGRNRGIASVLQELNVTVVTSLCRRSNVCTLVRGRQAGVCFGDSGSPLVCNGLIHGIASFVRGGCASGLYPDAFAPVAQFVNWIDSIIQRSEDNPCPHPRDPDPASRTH
# Assay: Enzyme assay for inhibition of human polymorphonuclear leukocyte elastase via hydrolysis of Boc-AAPAN or Boc-AAPVN
# Assay type: biochemical
# Settings: pH 7.5, second order rate constant for inactivation of the enzyme, expressed to the nearest thousand, read-out: Kobs/[I]
# Method: Enzyme Assays for the Inhibition of Human Polymorphonuclear Leukocyte Elastase Via Hydrolysis of N-t-Boc-alanyl-alanyl-prolylalanine-p-nitroanilide (Boc-AAPAN) or N-t-Boc-alanyl-prolylvaline-p-nitro-anilide (Boc-AAPVN) Reagent:
# 0.05M TES (N-tris[hydroxymethyl]methyl-2-mino-ethanesulfonic acid) Buffer, pH 7.5.
# 0.2 mM Boc-AAPAN or Boc-AAPVN.
# To prepare substrate, the solid was first dissolved in 10.0 ml DMSO. Buffer at pH 7.5 was then added to a final volume of 100 ml.
# Crude extract of human polymorphonuclear leukocytes (PMN) containing elastase activity.
# Inhibitors (azetidinones) to be tested dissolved in DMSO just before use.
# To 1.0 ml of 0.2 mM Boc-AAPAN in a cuvette, 0.01-0.1 ml of DMSO with or without inhibitor was added. After mixing, a measurement was taken at 410 mµ to detect any spontaneous hydrolysis due to presence of test compound. 0.05 Milliliters of PMN extract was then added and the ΔOD/min at 410 mµ was measured and recorded. Beckman model 35 spectrophotometer was used.
# Results were expressed to the nearest thousand ^kobs/I which is the second order rate constant in per mole per second for inactivation of the enzyme.
# The elastase activity in the crude PMN extract may vary from one preparation to another. A control of each new batch is run, and the volume added in the assay procedure is adjusted according to activity.
row,SMILES,kinact/KI [M⁻¹ s⁻¹]
1,"CCC[C@@H](NC(=O)N1C(=O)C(CC)(CC)[C@@H]1Oc1ccc(C(=O)OCCCCCCN(C)C)cc1)c1ccc(C)cc1 [Compound 24, [S-(R*,S*)]-6-(dimethylamino)hexyl-4-[[3,3-diethyl-1-[[[1-(4-methyl-phenyl)butyl]amino]carbonyl]-4-oxo-2-azetidinyl]oxy]-benzoate]",1.99e+06
2,CCC[C@@H](NC(=O)N1C(=O)C(CC)(CC)[C@@H]1Oc1ccc(C(=O)OCCN2CCNCC2)cc1)c1ccc(C)cc1 [Compound 25],1.71e+06
3,"CCC[C@@H](NC(=O)N1C(=O)C(CC)(CC)[C@@H]1Oc1ccc(C(=O)OCCN2CCN(C)CC2)cc1)c1ccc(C)cc1 [Compound 26, 2-(4-methyl-1-piperazinyl)ethyl[S-(R*,S*)]-4-[[3,3-diethyl-1-[[[1-(4-methyl-phenyl)butyl]amino]carbonyl]-4-oxo-2-azetidinyl]oxy]benzoate]",4.68e+06
4,CCC[C@@H](NC(=O)N1C(=O)C(CC)(CC)[C@@H]1Oc1ccc(C(=O)OCCN2CCN(C(C)=O)CC2)cc1)c1ccc(C)cc1 [Compound 27],3.26e+06
5,"C=CCN(CC=C)CCOC(=O)c1ccc(O[C@@H]2N(C(=O)N[C@H](CCC)c3ccc(C)cc3)C(=O)C2(CC)CC)cc1 [Compound 29, 2-(di-2-propenylamino)ethyl [S-(R*,S*)]-4-[[3,3-diethyl-1-[[[1-(4-methylphenyl)butyl]amino]carbonyl]-4-oxo-2-azetidinyl]oxy]benzoate]",891000
6,"CCC[C@@H](NC(=O)N1C(=O)C(CC)(CC)[C@@H]1Oc1ccc(C(=O)OCC(c2ccccc2)N(C)C)cc1)c1ccc(C)cc1 (stereo partly drawn) [Compound 30, 2-(dimethylamino)-2-phenylethyl [S-(R*,S*)]-4-[[3,3-diethyl-1-[[[1-(4-methylphenyl)butyl]amino]carbonyl]-4-oxo-2-azetidinyl]oxy]benzoate]",656000
7,"CCC[C@@H](NC(=O)N1C(=O)C(CC)(CC)[C@@H]1Oc1ccc(C(=O)OCCN(C)Cc2ccccc2)cc1)c1ccc(C)cc1 [Compound 31, 2-[methyl(phenylmethyl)amino]ethyl [S-(R*,S*)]-4-[[3,3-diethyl-1-[[[1-(4-methyl-phenyl)butyl]amino]carbonyl]-4-oxo-2-azetidinyl]oxy]benzoate]",1.18e+06
8,CCC[C@@H](NC(=O)N1C(=O)C(CC)(CC)[C@@H]1Oc1ccc(CC(=O)OCCN2CCOCC2)cc1)c1ccc(C)cc1 [Compound 35],1.72e+06
9,CCC[C@@H](NC(=O)N1C(=O)C(CC)(CC)[C@@H]1Oc1ccc(CC(=O)OC(C)CN(C)C)cc1)c1ccc(C)cc1 (some centres unmarked) [Compound 36],1.69e+06
10,CCC[C@@H](NC(=O)N1C(=O)C(CC)(CC)[C@@H]1Oc1ccc(CC(=O)OCC(C)(C)N(C)C)cc1)c1ccc(C)cc1 [Compound 37],2.1e+06
11,CCC[C@@H](NC(=O)N1C(=O)C(CC)(CC)[C@@H]1Oc1ccc(CC(=O)OCCN(C)Cc2ccccc2)cc1)c1ccc(C)cc1 [Compound 39],751000
12,CCC[C@@H](NC(=O)N1C(=O)C(CC)(CC)[C@@H]1Oc1ccc(CC(=O)N2CCN(C)CC2)cc1)c1ccc(C)cc1 [Compound 41],974000
13,CCC[C@@H](NC(=O)N1C(=O)C(CC)(CC)[C@@H]1Oc1ccc(CC(=O)N2CCOCC2)cc1)c1ccc(C)cc1 [Compound 42],1.09e+06
14,CCC[C@@H](NC(=O)N1C(=O)C(CC)(CC)[C@@H]1Oc1ccc(CC(=O)N(C)CCN(C)C)cc1)c1ccc(C)cc1 [Compound 44],1.24e+06
15,CCC[C@@H](NC(=O)N1C(=O)C(CC)(CC)[C@@H]1Oc1ccc(CC(=O)NCCc2ccncc2)cc1)c1ccc(C)cc1 [Compound 46],2.25e+06
16,CCC[C@@H](NC(=O)N1C(=O)C(CC)(CC)[C@@H]1Oc1ccc(CC(=O)N(C)CCN(CC)CC)cc1)c1ccc(C)cc1 [Compound 55],1.32e+06
17,CCC[C@@H](NC(=O)N1C(=O)C(CC)(CC)[C@@H]1Oc1ccc(CC(=O)Nc2cccc(Cl)c2)cc1)c1ccc(C)cc1 [Compound 61],733000
18,CCC[C@@H](NC(=O)N1C(=O)C(CC)(CC)[C@@H]1Oc1ccc(CC(=O)Nc2cccc(OC)c2)cc1)c1ccc(C)cc1 [Compound 62],1.62e+06

# The remaining lines, values ahead:
row,kinact/KI [M⁻¹ s⁻¹],SMILES
1,1.99e+06,CCC[C@@H](NC(=O)N1C(=O)C(CC)(CC)[C@@H]1Oc1ccc(CC(=O)OCCN(C)C)cc1)c1ccc(C)cc1 [Compound 32]
2,1.15e+06,CCC[C@@H](NC(=O)N1C(=O)C(CC)(CC)[C@@H]1Oc1ccc(CC(=O)OCCCN(C)C)cc1)c1ccc(C)cc1 [Compound 33]
3,1.34e+06,CCC[C@@H](NC(=O)N1C(=O)C(CC)(CC)[C@@H]1Oc1ccc(CC(=O)OCCN(CC)CC)cc1)c1ccc(C)cc1 [Compound 34]
4,1.01e+06,CCC[C@@H](NC(=O)N1C(=O)C(CC)(CC)[C@@H]1Oc1ccc(CC(=O)OCC(=O)O)cc1)c1ccc(C)cc1 [Compound 38]
5,1.24e+06,CCC[C@@H](NC(=O)N1C(=O)C(CC)(CC)[C@@H]1Oc1ccc(CC(=O)N(CCO)CCO)cc1)c1ccc(C)cc1 [Compound 40]
6,1.21e+06,CCC[C@@H](NC(=O)N1C(=O)C(CC)(CC)[C@@H]1Oc1ccc(CC(=O)NCCN(C)C)cc1)c1ccc(C)cc1 [Compound 43]
7,1.12e+06,CCC[C@@H](NC(=O)N1C(=O)C(CC)(CC)[C@@H]1Oc1ccc(CC(=O)NCCCN(C)C)cc1)c1ccc(C)cc1 [Compound 45]
8,876000,CCC[C@@H](NC(=O)N1C(=O)C(CC)(CC)[C@@H]1Oc1ccc(CC(=O)NCC(=O)O)cc1)c1ccc(C)cc1 [Compound 47]
9,676000,CCC[C@@H](NC(=O)N1C(=O)C(CC)(CC)[C@@H]1Oc1ccc(CC(=O)NC(C)C(=O)O)cc1)c1ccc(C)cc1 (some centres unmarked) [Compound 48]
10,1.3e+06,CCC[C@@H](NC(=O)N1C(=O)C(CC)(CC)[C@@H]1Oc1ccc(CC(=O)NCC(=O)N(CCO)CCO)cc1)c1ccc(C)cc1 [Compound 49]
11,989000,CCC[C@@H](NC(=O)N1C(=O)C(CC)(CC)[C@@H]1Oc1ccc(CC(=O)N(C)CC(=O)O)cc1)c1ccc(C)cc1 [Compound 50]
12,939000,CCC[C@@H](NC(=O)N1C(=O)C(CC)(CC)[C@@H]1Oc1ccc(CC(=O)NC(C)C(=O)N(CCO)CCO)cc1)c1ccc(C)cc1 (some centres unmarked) [Compound 51]
13,273000,CCC[C@@H](NC(=O)N1C(=O)C(CC)(CC)[C@@H]1Oc1ccc(CC(=O)N(C)CC(=O)N(CCO)CCO)cc1)c1ccc(C)cc1 [Compound 52]
14,2.51e+06,CCC[C@@H](NC(=O)N1C(=O)C(CC)(CC)[C@@H]1Oc1ccc(CC(=O)N(C)CCN2CCOCC2)cc1)c1ccc(C)cc1 [Compound 53]
15,1.39e+06,CCC[C@@H](NC(=O)N1C(=O)C(CC)(CC)[C@@H]1Oc1ccc(CC(=O)N(C)CCN(CCOC)CCOC)cc1)c1ccc(C)cc1 [Compound 54]
16,1.05e+06,CCC[C@@H](NC(=O)N1C(=O)C(CC)(CC)[C@@H]1Oc1ccc(CC(=O)N(C)CCCN(C)C)cc1)c1ccc(C)cc1 [Compound 56]
17,1.34e+06,CCC[C@@H](NC(=O)N1C(=O)C(CC)(CC)[C@@H]1Oc1ccc(CC(=O)NCC(C)N(C)C)cc1)c1ccc(C)cc1 (some centres unmarked) [Compound 57]
18,1.63e+06,CCC[C@@H](NC(=O)N1C(=O)C(CC)(CC)[C@@H]1Oc1ccc(CC(=O)N(C)CCN(C(C)C)C(C)C)cc1)c1ccc(C)cc1 [Compound 58]
19,1.14e+06,CCC[C@@H](NC(=O)N1C(=O)C(CC)(CC)[C@@H]1Oc1ccc(CC(=O)N(CCC)CCC)cc1)c1ccc(C)cc1 [Compound 59]
20,1.08e+06,CCC[C@@H](NC(=O)N1C(=O)C(CC)(CC)[C@@H]1Oc1ccc(CC(=O)N(CC)CC)cc1)c1ccc(C)cc1 [Compound 60]
21,917000,CCC[C@@H](NC(=O)N1C(=O)C(CC)(CC)[C@@H]1Oc1ccc(CC(=O)N(C)CCCC(=O)O)cc1)c1ccc(C)cc1 [Compound 64]
22,1.34e+06,CCC[C@@H](NC(=O)N1C(=O)C(CC)(CC)[C@@H]1Oc1ccc(CC(=O)N(C)CCCC(=O)NS(=O)(=O)c2ccccc2)cc1)c1ccc(C)cc1 [Compound 65]
23,1.36e+06,CCC[C@@H](NC(=O)N1C(=O)C(CC)(CC)[C@@H]1Oc1ccc(CC(=O)N(C)CCCN(C)Cc2ccccc2)cc1)c1ccc(C)cc1 [Compound 66]
24,942000,CCC[C@@H](NC(=O)N1C(=O)C(CC)(CC)[C@@H]1Oc1ccc(CC(=O)N(C)C)cc1)c1ccc(C)cc1 [Compound 67]
25,1.9e+06,CCC[C@@H](NC(=O)N1C(=O)C(CC)(CC)[C@@H]1Oc1ccc(CC(=O)N(C)Cc2ccccc2)cc1)c1ccc(C)cc1 [Compound 68]

# Same assay, conditions: second order rate constant for inactivation of the enzyme, expressed to the nearest thousand; pH 7.5
row,SMILES,Kobs/[I]
1,"CCCC(NC(=O)N1C(=O)C(CC)(CC)C1Oc1ccc(C(=O)OCCN(c2ccccc2)c2ccccc2)cc1)c1ccc(C)cc1 (stereo not drawn) [Compound 28, 2-(diphenylamino)ethyl[S-(R*,S*)]-4-[[3,3-diethyl-1-[[[1-(4-methylphenyl)butyl]amino]carbonyl]-4-oxo-2-azetidinyl]oxy]benzoate]","188,000 per mole per second"
